Patent US6054429A (priority 1996, dated 2000)

System: formalin flinch response in rats
Settings: rat, in vivo

Row | SMILES | effect on Phase 1 response (in words) | effect on Phase 2 response (in words)
1 | COc1ccc([C@@H]2Sc3ccccc3N(CCN(C)C)C(=O)[C@@H]2OC(C)=O)cc1 [diltiazem] | without effect | without effect
2 | COC(=O)C1=C(C)NC(C)=C(C(=O)OC)C1c1ccccc1[N+](=O)[O-] [nifedipine] | without effect | without effect
3 | COCCOC(=O)C1=C(C)NC(C)=C(C(=O)OC(C)C)C1c1cccc([N+](=O)[O-])c1 (centres unmarked) [nimodipine] | without effect | without effect
4 | COc1ccc(CCN(C)CCCC(C#N)(c2ccc(OC)c(OC)c2)C(C)C)cc1OC (centres unmarked) [verapamil] | without effect | without effect
